Measurements reported in PubChem BioAssay (NCI).
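A five-concentration, 48-hour dose response in 96-well plates underlies each endpoint, interpolated linearly between surrounding concentrations. At the TGI there is no net growth.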

Legend:
Assay in all cases: growth of human tumour cells (NCI), 48 h
[1] = test system: CCRF-CEM leukemia
[2] = test system: HCT-15 colon
[3] = test system: HT29 colon
[4] = test system: OVCAR-4 ovarian
[5] = test system: OVCAR-5 ovarian
[6] = test system: SK-MEL-5 melanoma
[7] = test system: SN12C renal
[8] = test system: SNB-19 CNS
[9] = test system: UACC-62 melanoma
[10] = test system: BT-549 breast

`O=P(NCCCO)(OCc1ccccc1)N(CCCl)CCCl` (centres undefined) showed a TGI [1] greater than 100 µM, a TGI [2] greater than 100 µM and a TGI [3] greater than 100 µM. For the same compound, the TGI [4] was greater than 100 µM, the TGI [5] was greater than 100 µM and the TGI [6] was greater than 100 µM. For the same compound, the TGI [7] was greater than 100 µM, the TGI [8] was greater than 100 µM and the TGI [9] was greater than 100 µM.

In the case of `COC(=O)c1c(O)ccc2c1c1cc3ccccc3c(O)c1n2CCc1ccc(OC)c(OC)c1`, the TGI [10] is reported as greater than 100 µM, the TGI [1] is reported as greater than 100 µM and the TGI [2] is reported as greater than 100 µM. For the same compound, the TGI [3] was 18.6 µM, the TGI [4] was greater than 100 µM and the TGI [5] was greater than 100 µM. It also gave a TGI [6] greater than 100 µM, a TGI [7] greater than 100 µM and a TGI [8] greater than 100 µM. For the same compound, the TGI [9] was greater than 100 µM.

Compound `COc1cccc(C23CCN(C)C(CC(O)C2)C3)c1OC` (centres undefined) has a TGI [10] greater than 100 µM, a TGI [1] greater than 100 µM and a TGI [2] greater than 100 µM. For the same compound, the TGI [3] was greater than 100 µM, the TGI [4] was greater than 100 µM and the TGI [5] was greater than 100 µM. For the same compound, the TGI [6] was greater than 100 µM, the TGI [7] was greater than 100 µM and the TGI [8] was greater than 100 µM. For the same compound, the TGI [9] was greater than 100 µM.

`O=C(Cc1nc2ccccc2[nH]c1=O)c1c[nH]c2ccccc12` was tested, and the TGI [10] was 29.6 µM, the TGI [1] was greater than 100 µM and the TGI [2] was greater than 100 µM. For the same compound, the TGI [3] was 27.3 µM, the TGI [4] was 72.2 µM and the TGI [5] was 57.1 µM. It also gave a TGI [6] of 26.9 µM, a TGI [7] of 54.3 µM and a TGI [8] greater than 100 µM. It also gave a TGI [9] of 29 µM.

For `Nc1nc(SCC(=O)c2ccc(Br)cc2)c2[nH]cnc2n1`, the TGI [10] was greater than 100 µM, the TGI [1] was 47.8 µM and the TGI [2] was greater than 100 µM. It also gave a TGI [3] greater than 100 µM, a TGI [4] greater than 100 µM and a TGI [5] greater than 100 µM. For the same compound, the TGI [6] was 60.3 µM, the TGI [7] was greater than 100 µM and the TGI [8] was greater than 100 µM. For the same compound, the TGI [9] was greater than 100 µM.

Compound `C/C(C=O)=C/[C@@]1(C)O[C@@H](C)[C@@](C)(O)[C@@H]1O` has a TGI [1] greater than 100 µM, a TGI [2] of 51.5 µM and a TGI [3] greater than 100 µM. The TGI [4] was greater than 100 µM, the TGI [5] was greater than 100 µM and the TGI [6] was greater than 100 µM. For the same compound, the TGI [7] was greater than 100 µM, the TGI [8] was greater than 100 µM and the TGI [9] was greater than 100 µM.

`C#C[C@]1(O)CC[C@H]2[C@@H]3CCc4cc(O)ccc4[C@H]3CC[C@@]21C` gave a TGI [1] greater than 100 µM, a TGI [2] greater than 100 µM and a TGI [3] of 54.4 µM. For the same compound, the TGI [5] was greater than 100 µM, the TGI [6] was 52.2 µM and the TGI [7] was greater than 100 µM. The TGI [8] was greater than 100 µM and the TGI [9] was greater than 100 µM.

With `O=C(Nc1ccccc1)Oc1ccc(C(=S)Nc2ccc(Br)cc2)cc1` the TGI [10] was 36.6 µM, the TGI [1] was 28.5 µM and the TGI [2] was 34.5 µM. It also gave a TGI [3] of 34.7 µM, a TGI [4] of 86.3 µM and a TGI [5] of 46.4 µM. It also gave a TGI [6] of 31.1 µM and a TGI [9] of 30 µM.

With `CCCCCCCCCCCCCCCc1nc(=S)[nH][nH]1` the TGI [1] was greater than 100 µM, the TGI [2] was greater than 100 µM and the TGI [3] was greater than 100 µM. It also gave a TGI [4] greater than 100 µM, a TGI [5] greater than 100 µM and a TGI [7] greater than 100 µM. The TGI [8] was greater than 100 µM and the TGI [9] was greater than 100 µM.

`CCOc1nc2c(N3CCCC3)nc(N3CCNCC3)nc2nc1NCc1ccccc1` was tested, and the TGI [10] was 3.51 µM, the TGI [1] was 3.49 µM and the TGI [2] was 3.45 µM. The TGI [3] was 2.6 µM, the TGI [4] was 6.05 µM and the TGI [5] was 16.3 µM. The TGI [6] was 2.71 µM, the TGI [7] was 2.96 µM and the TGI [8] was 3.45 µM. For the same compound, the TGI [9] was 3.25 µM.

In the case of `CC1=NN(c2nc(N)nc(/C(C#N)=C\c3ccc(-c4ccc([N+](=O)[O-])cc4)o3)n2)C(C)(C)C1`, the TGI [10] is reported as greater than 100 µM, the TGI [1] is reported as greater than 100 µM and the TGI [2] is reported as greater than 100 µM. It also gave a TGI [3] greater than 100 µM, a TGI [4] greater than 100 µM and a TGI [5] greater than 100 µM. It also gave a TGI [6] greater than 100 µM, a TGI [7] greater than 100 µM and a TGI [8] greater than 100 µM. For the same compound, the TGI [9] was greater than 100 µM.

`COc1ccccc1-c1c(C#N)c(N)[nH]c(=S)c1C#N` gave a TGI [10] greater than 100 µM, a TGI [2] greater than 100 µM and a TGI [3] greater than 100 µM. For the same compound, the TGI [4] was greater than 100 µM, the TGI [5] was greater than 100 µM and the TGI [6] was greater than 100 µM. The TGI [7] was 91.8 µM, the TGI [8] was greater than 100 µM and the TGI [9] was greater than 100 µM.

With `Cc1ccc(-c2cc(-c3ccc(Cl)cc3)nc(/N=C3\C(=O)N(CN(C)C)c4ccccc43)n2)cc1` the TGI [10] was greater than 100 µM, the TGI [1] was greater than 100 µM and the TGI [2] was greater than 100 µM. It also gave a TGI [3] greater than 100 µM, a TGI [4] greater than 100 µM and a TGI [5] greater than 100 µM. For the same compound, the TGI [6] was greater than 100 µM, the TGI [7] was greater than 100 µM and the TGI [8] was greater than 100 µM. For the same compound, the TGI [9] was greater than 100 µM.

`Oc1ccccc1C=Nc1ccc(-c2nc3ccccc3s2)cc1` gave a TGI [10] greater than 100 µM, a TGI [1] greater than 100 µM and a TGI [2] greater than 100 µM. It also gave a TGI [3] greater than 100 µM, a TGI [4] greater than 100 µM and a TGI [5] greater than 100 µM. The TGI [6] was 31.9 µM, the TGI [7] was greater than 100 µM and the TGI [8] was greater than 100 µM. For the same compound, the TGI [9] was 66.3 µM.

With `COC(=O)/C=C\C(C#N)(C#N)N=Cc1ccc(OC)cc1` the TGI [10] was 10.4 µM, the TGI [1] was 2.53 µM and the TGI [2] was 13.2 µM. It also gave a TGI [3] of 22.2 µM, a TGI [4] of 12.8 µM and a TGI [5] of 40.7 µM. The TGI [6] was 32.6 µM, the TGI [7] was 30.9 µM and the TGI [8] was greater than 62.7 µM. It also gave a TGI [9] of 30 µM.

`CC(C)CC(N)C(=O)NC(C(=O)NC(CCCNC(=N)N)C(=O)NC(CS)C(=O)NC1CSCC(C(=O)NC(Cc2ccccc2)C(=O)NC(C(=O)NC(CCCNC(=N)N)C(=O)O)C(C)C)NC(=O)C2CCCN2C(=O)C(CCCCN)NC(=O)C2CCCN2C(=O)C2CCCN2C(=O)C(Cc2ccc(O)cc2)NC(=O)C(CO)NC(=O)C(CCCCN)NC(=O)C(C(C)O)NC(=O)C(Cc2c[nH]c3ccccc23)NC1=O)C(C)C` (centres undefined) showed a TGI [10] greater than 25 µM, a TGI [1] greater than 25 µM and a TGI [2] greater than 25 µM. It also gave a TGI [3] greater than 25 µM, a TGI [4] greater than 25 µM and a TGI [5] greater than 25 µM. It also gave a TGI [6] greater than 25 µM, a TGI [7] greater than 25 µM and a TGI [8] greater than 25 µM. It also gave a TGI [9] greater than 25 µM.

`Cc1c(-c2ccccc2)[nH]c2cn[nH]c(=O)c12` showed a TGI [10] greater than 100 µM, a TGI [1] greater than 100 µM and a TGI [2] greater than 100 µM. For the same compound, the TGI [3] was greater than 100 µM, the TGI [5] was greater than 100 µM and the TGI [6] was greater than 100 µM. It also gave a TGI [8] greater than 100 µM and a TGI [9] greater than 100 µM.
